# Experimental data: patent US9023789B2, “Amylin analogs and pharmaceutical compositions thereof” (Novo Nordisk A/S, priority 2012, dated 2015)
# Numbered stars: 1 amine (or outer) side, 2 acyl side, 3 side chain; on linkers, the order of the positions; unused ones are H or OH. Bridge positions count the residues as written; N and C are the ends. Side chains are listed from the residue outwards. Peptide text beside a SMILES is read from it. * marks the point of attachment. C20 diacid = O=C(O)CCCCCCCCCCCCCCCCCCC(=O)*; γGlu = O=C(O)[C@H](CCC(=O)[*:2])N[*:1]; AEEA = NCCOCCOCC(=O)O
# Experiments:
# [1] = molecular target: T1, rat amylin receptor (rat calcitonin receptor + rat RAMP 3) (Rattus norvegicus, UniProt P32214+Q9JJ73); experiment: ASSAY (VI) binding to the rat amylin receptor; conditions: for IC50: binding to rat amylin receptor, read-out: rAmylin-R bind IC50
# T1 construct: expressed in transfected cells; host or cells: BHK tk'ts 13 (transient, FuGENE 6), membranes
# T1 sequence (P32214 25-479 isoform P32214-2 limits assumed): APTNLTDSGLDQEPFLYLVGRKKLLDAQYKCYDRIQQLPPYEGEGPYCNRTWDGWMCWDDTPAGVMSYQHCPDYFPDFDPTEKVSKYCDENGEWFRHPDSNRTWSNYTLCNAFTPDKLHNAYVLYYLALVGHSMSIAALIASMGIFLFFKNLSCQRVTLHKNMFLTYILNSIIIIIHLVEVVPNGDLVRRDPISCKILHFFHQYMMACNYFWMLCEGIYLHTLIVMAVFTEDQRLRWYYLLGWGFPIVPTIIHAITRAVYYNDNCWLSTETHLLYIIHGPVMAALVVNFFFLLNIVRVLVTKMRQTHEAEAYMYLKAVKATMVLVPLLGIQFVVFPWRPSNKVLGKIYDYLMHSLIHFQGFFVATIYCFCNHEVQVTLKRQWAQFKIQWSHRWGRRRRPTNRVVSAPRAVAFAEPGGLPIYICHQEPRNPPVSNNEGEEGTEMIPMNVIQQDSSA
# T1 sequence (Q9JJ73 23-147 partner): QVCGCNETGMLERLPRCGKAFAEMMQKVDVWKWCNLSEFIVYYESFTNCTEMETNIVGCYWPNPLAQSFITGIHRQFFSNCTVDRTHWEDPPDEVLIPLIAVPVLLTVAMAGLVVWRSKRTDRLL
# How it was run: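 Binding to the rat amylin receptor was determined with membrane preparations. The receptor was expressed by transiently transfecting BHK tk′ts 13 cells with rat calcitonin receptor, using FuGENE® 6 (Roche) according to the manufacturer's recommendations. Roughly 48 hours later the cells were harvested and their membranes isolated.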
# [2] = molecular target: T2, rat calcitonin receptor (Rattus norvegicus, UniProt P32214); experiment: ASSAY (VIII) binding to the rat calcitonin receptor; conditions: Table 7, read-out: rCTR bind IC50
# T2 construct: expressed in transfected cells; host or cells: BHK tk'ts 13 (transient, FuGENE 6), membranes
# T2 sequence (P32214 25-479 isoform P32214-2 limits assumed): T1 sequence (P32214 25-479 isoform P32214-2 limits assumed)
# How it was run: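 Transfect BHK tk′ts 13 cells transiently with rat calcitonin receptor, culture in DMEM containing 10% FBS, collect cells about 48 hours later, then prepare membranes.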
# [3] = ASSAY (III) ThT fibrillation assay for physical stability; assay type: physicochemical
# How it was run: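 Formulations with 1 μM ThT, pH adjusted as required, incubated at 37 °C with 960 rpm orbital shaking; fluorescence (ex 444/em 485 nm) read every 20 min. Fibrillation reported as mean ThT fluorescence ± SD of 4–8 replicates at time points; polypeptide concentration measured by reverse-phase HPLC before and after, post-centrifugation.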
# [4] = Table 7, rat binding selectivity, rCTR IC50 / rAmylin-R IC50
# [5] = Table 7a (preferred compounds), rat binding selectivity, rCTR IC50 / rAmylin-R IC50
# [6] = ratio of rCTR bind IC50 to rAmylin-R bind IC50
Compound,IC50 ([1]; Table 7),"Ratio rCT/rAmylin binding [1, 4]","Ratio rCT/rAmylin binding [1, 5]","Ratio rCT/rAmylin binding [1, 6]",IC50 [2],ThT pH 4.0 lag time (h) [3]
CC[C@H](C)[C@H](NC(=O)[C@H](C)NC(=O)CNC(=O)[C@H](Cc1ccccc1)NC(=O)[C@H](CC(N)=O)NC(=O)[C@@H]1CCCN1C(=O)[C@H](CO)NC(=O)[C@H](CO)NC(=O)[C@H](Cc1c[nH]cn1)NC(=O)[C@H](CCCNC(=N)N)NC(=O)[C@H](CC(C)C)NC(=O)[C@H](Cc1ccccc1)NC(=O)[C@H](CC(N)=O)NC(=O)[C@H](C)NC(=O)[C@H](CC(C)C)NC(=O)[C@H](CCCNC(=N)N)NC(=O)[C@H](CCC(N)=O)NC(=O)[C@@H](NC(=O)[C@H](C)NC(=O)[C@@H]1CSSC[C@H](NC(=O)[C@@H](N)CCCCNC(=O)COCCOCCNC(=O)CC[C@H](NC(=O)CCCCCCCCCCCCCCCCCCC(=O)O)C(=O)O)C(=O)N[C@@H](CC(N)=O)C(=O)N[C@@H]([C@@H](C)O)C(=O)N[C@@H](C)C(=O)N[C@@H]([C@@H](C)O)C(=O)N1)[C@@H](C)O)C(=O)N1CCC[C@H]1C(=O)N[C@@H](CO)C(=O)N[C@@H](CO)C(=O)N[C@H](C(=O)N[C@@H](CC(N)=O)C(=O)N[C@H](C(=O)NCC(=O)N1CCC[C@H]1C(=O)N[C@@H](Cc1c[nH]cn1)C(=O)N[C@H](C(=O)N[C@@H](Cc1ccc(O)cc1)C(N)=O)[C@@H](C)O)C(C)C)[C@@H](C)O [Example 58] (H-K([AEEA-γGlu-C20 diacid])CNTATCATQRLANFLRHSSPNFGAIPSSTNVGPHTY-NH2; disulfide 2-7),0.135 nM,76.6,76.6,76.6,10.3 nM,38 h
CC[C@H](C)[C@H](NC(=O)[C@H](C)NC(=O)CNC(=O)[C@H](Cc1ccccc1)NC(=O)[C@H](CC(N)=O)NC(=O)[C@H](CCCCNC(=O)CC[C@H](NC(=O)CC[C@H](NC(=O)CCCCCCCCCCCCCCCCCCC(=O)O)C(=O)O)C(=O)O)NC(=O)[C@H](CO)NC(=O)[C@H](CO)NC(=O)[C@H](Cc1c[nH]cn1)NC(=O)[C@H](CCCNC(=N)N)NC(=O)[C@H](CC(C)C)NC(=O)[C@H](Cc1ccccc1)NC(=O)[C@H](CC(=O)O)NC(=O)[C@H](C)NC(=O)[C@H](CC(C)C)NC(=O)[C@H](CCCNC(=N)N)NC(=O)[C@H](CCC(N)=O)NC(=O)[C@@H](NC(=O)[C@H](C)NC(=O)[C@@H]1CSSC[C@H](NC(=O)[C@@H](N)CCCCN)C(=O)N[C@@H](CC(N)=O)C(=O)N[C@@H]([C@@H](C)O)C(=O)N[C@@H](C)C(=O)N[C@@H]([C@@H](C)O)C(=O)N1)[C@@H](C)O)C(=O)N1CCC[C@H]1C(=O)N[C@@H](CO)C(=O)N[C@@H](CO)C(=O)N[C@H](C(=O)N[C@@H](CC(N)=O)C(=O)N[C@H](C(=O)NCC(=O)N[C@@H](CO)C(=O)N[C@@H](CC(=O)O)C(=O)N[C@H](C(=O)N[C@@H](Cc1ccc(O)cc1)C(N)=O)[C@@H](C)O)C(C)C)[C@@H](C)O [Example 59] (H-KCNTATCATQRLADFLRHSSK([γGlu-γGlu-C20 diacid])NFGAIPSSTNVGSDTY-NH2; disulfide 2-7; N-terminus assumed),0.659 nM,28.5,28.5,,18.8 nM,23 h
CC[C@H](C)[C@H](NC(=O)[C@H](C)NC(=O)CNC(=O)[C@H](Cc1ccccc1)NC(=O)[C@H](CC(N)=O)NC(=O)[C@@H]1CCCN1C(=O)[C@H](CO)NC(=O)[C@H](CO)NC(=O)[C@H](Cc1c[nH]cn1)NC(=O)[C@H](CCCNC(=N)N)NC(=O)[C@H](CC(C)C)NC(=O)[C@H](Cc1ccccc1)NC(=O)[C@H](CCCNC(=N)N)NC(=O)[C@H](C)NC(=O)[C@H](CC(C)C)NC(=O)[C@H](CCCNC(=N)N)NC(=O)[C@H](CCC(N)=O)NC(=O)[C@@H](NC(=O)[C@H](C)NC(=O)[C@@H]1CSSC[C@H](NC(=O)[C@@H](N)CCCCNC(=O)CC[C@H](NC(=O)CCCCCCCCCCCCCCCCCCC(=O)O)C(=O)O)C(=O)N[C@@H](CC(N)=O)C(=O)N[C@@H]([C@@H](C)O)C(=O)N[C@@H](C)C(=O)N[C@@H]([C@@H](C)O)C(=O)N1)[C@@H](C)O)C(=O)N1CCC[C@H]1C(=O)N[C@@H](CO)C(=O)N[C@@H](CO)C(=O)N[C@H](C(=O)N1CCC[C@H]1C(=O)N[C@H](C(=O)NCC(=O)N[C@@H](CO)C(=O)N[C@@H](CC(N)=O)C(=O)N[C@H](C(=O)N[C@@H](Cc1ccc(O)cc1)C(N)=O)[C@@H](C)O)C(C)C)[C@@H](C)O [Example 63] (H-K([γGlu-C20 diacid])CNTATCATQRLARFLRHSSPNFGAIPSSTPVGSNTY-NH2; disulfide 2-7 (inferred); N-terminus assumed),3.48 nM,35.6,35.6,35.6,124 nM,45 h
CC[C@H](C)[C@H](NC(=O)[C@H](C)NC(=O)CNC(=O)[C@H](Cc1ccccc1)NC(=O)[C@H](CC(N)=O)NC(=O)[C@@H]1CCCN1C(=O)[C@H](CO)NC(=O)[C@H](CO)NC(=O)[C@H](Cc1c[nH]cn1)NC(=O)[C@H](CCCNC(=N)N)NC(=O)[C@H](CC(C)C)NC(=O)[C@H](Cc1ccccc1)NC(=O)[C@H](Cc1c[nH]cn1)NC(=O)[C@H](C)NC(=O)[C@H](CC(C)C)NC(=O)[C@H](CCCNC(=N)N)NC(=O)[C@H](CCC(N)=O)NC(=O)[C@@H](NC(=O)[C@H](C)NC(=O)[C@@H]1CSSC[C@H](NC(=O)[C@@H](N)CCCCNC(=O)CC[C@H](NC(=O)CCCCCCCCCCCCCCCCCCC(=O)O)C(=O)O)C(=O)N[C@@H](CC(N)=O)C(=O)N[C@@H]([C@@H](C)O)C(=O)N[C@@H](C)C(=O)N[C@@H]([C@@H](C)O)C(=O)N1)[C@@H](C)O)C(=O)N1CCC[C@H]1C(=O)N[C@@H](CO)C(=O)N[C@@H](CO)C(=O)N[C@H](C(=O)N[C@@H](CC(N)=O)C(=O)N[C@H](C(=O)NCC(=O)N[C@@H](CO)C(=O)N[C@@H](Cc1c[nH]cn1)C(=O)N[C@H](C(=O)N[C@@H](Cc1ccc(O)cc1)C(N)=O)[C@@H](C)O)C(C)C)[C@@H](C)O [Example 66] (H-K([γGlu-C20 diacid])CNTATCATQRLAHFLRHSSPNFGAIPSSTNVGSHTY-NH2; disulfide 2-7; N-terminus assumed),0.581 nM,35.8,35.8,35.8,20.8 nM,45 h
CC[C@H](C)[C@H](NC(=O)[C@H](C)NC(=O)CNC(=O)[C@H](Cc1ccccc1)NC(=O)[C@H](CC(N)=O)NC(=O)[C@@H]1CCCN1C(=O)[C@H](CO)NC(=O)[C@H](CO)NC(=O)[C@H](Cc1c[nH]cn1)NC(=O)[C@H](CCCNC(=N)N)NC(=O)[C@H](CC(C)C)NC(=O)[C@H](Cc1ccccc1)NC(=O)[C@H](Cc1c[nH]cn1)NC(=O)[C@H](C)NC(=O)[C@H](CC(C)C)NC(=O)[C@H](CCCNC(=N)N)NC(=O)[C@H](CCC(N)=O)NC(=O)[C@@H](NC(=O)[C@H](C)NC(=O)[C@@H]1CSSC[C@H](NC(=O)[C@@H](N)CCCCNC(=O)COCCOCCNC(=O)CC[C@H](NC(=O)CCCCCCCCCCCCCCCCCCC(=O)O)C(=O)O)C(=O)N[C@@H](CC(N)=O)C(=O)N[C@@H]([C@@H](C)O)C(=O)N[C@@H](C)C(=O)N[C@@H]([C@@H](C)O)C(=O)N1)[C@@H](C)O)C(=O)N1CCC[C@H]1C(=O)N[C@@H](CO)C(=O)N[C@@H](CO)C(=O)N[C@H](C(=O)N[C@@H](CC(N)=O)C(=O)N[C@H](C(=O)NCC(=O)N[C@@H](CO)C(=O)N[C@@H](CC(N)=O)C(=O)N[C@H](C(=O)N[C@@H](Cc1ccc(O)cc1)C(N)=O)[C@@H](C)O)C(C)C)[C@@H](C)O [Example 69] (H-K([AEEA-γGlu-C20 diacid])CNTATCATQRLAHFLRHSSPNFGAIPSSTNVGSNTY-NH2; disulfide 2-7; N-terminus assumed),0.45 nM,104.0,104.0,104.0,46.8 nM,22 h
